In patent US9617276B2, “Compounds and methods for treating AIDS and HIV infections” (priority 2009, dated 2017):
Read-outs that look alike come from different tables or passages of the source.

Assays:
HIV-1NL4-3 = experiment: in vitro selection of PI-resistant HIV-1 variants in MT-4 cells; assay type: cell-based; details: HIV-1NL4-3 in MT-4 cells, increasing drug concentrations
Text: The culture supernatants were harvested on day 7 and used to infect fresh MT-4 cells for the next round of culture in the presence of increasing concentrations of each drug.

[1] = tested on: multidrug-resistant clinical HIV-1 isolates (HIV-1MDR); experiment: microbe, parasite or virus in culture; assay type: cell-based
Method: The susceptibility of HIV-1LAI and primary HIV-1 isolates to various drugs were determined as described previously (Koh et al. 2003 Antimicrob Agents Chemother 47:3123-9). Briefly, MT-2 cells (2×10^4/ml) were exposed to 100 50% tissue culture infectious doses (TCID50S) of HIV-1LAI, in the presence or absence of various concentrations of drugs in 96-well microculture plates and were incubated at 37° C. for 7 days. After 100 μl of the medium was removed from each well, 3-(4,5-dimetylthiazol-2-yl)-2,5-diphenyltetrazolium bromide (MTT) solution (10 μl, 7.5 mg/ml in phosphate-buffered saline) was added to each well in the plate, followed by incubation at 37° C. for 3 h. […] All assays were performed in duplicate or triplicate. To determine the susceptibility of primary HIV-1 isolates to drugs, phytohemagglutinin-activated peripheral blood mononuclear cells (PHA-PBMCs; 106/ml) were exposed to 50 TCID50S of each. The target cells were exposed to HIV-1104pre or drug-resistant HIV-1 in the presence or absence of various concentrations of drugs and were incubated for 7 days. Upon the conclusion of the culture, the amounts of p24 Gag protein in the supernatants were determined using a fully automated chemiluminescent enzyme immunoassay system (Lumipulse F; Fujirebio Inc., Tokyo, Japan) (Maeda et al. 2001 J Biol Chem 276:35194-200). To determine the drug susceptibility of certain laboratory HIV-1 strains, MT-4 cells were used as target cells. In brief, MT-4 cells (10^5/ml) were exposed to 100 TCID50S of drug-resistant HIV-1 strains in the presence or absence of various concentrations of drugs and on day 7 of culture, the supernatant was harvested and the amounts of p24 Gag protein were determined. […] All assays were performed in duplicate or triplicate.
These clinical strains contained 9 to 14 amino acid substitutions in the protease-encoding region, which have reportedly been associated with HIV-1 resistance to various PIs.
Amino acid substitutions identified in the protease-encoding region compared to the consensus type B sequence cited from the Los Alamos database include L63P in HIV-1ERS104pre; L10I, K14R, L33I, M36I, M46I, F53I, K55R, I62V, L63P, A71V, G73S, V82A, L90M, and I93L in HIV-1MDR/B; L10I, I15V, K20R, L24I, M36I, M46L, I54V, I62V, L63P, K70Q, V82A, and L89M in HIV-1MDR/C; L10I, V11I, T12E, I15V, L19I, R41K, M46L, L63P, A71T, V82A, and L90M in HIV-1MDR/G; L10I, K14R, R41K, M46L, I54V, L63P, A71V, V82A, L90M, I93L in HIV-1MDR/TM; L10I, K43T, M46L, I54V, L63P, A71V, V82A, L90M, and Q92K in HIV-1MDR/MM; L10I, L24I, I33F, E35D, M36I, N37S, M46L, I54V, R57K, I62V, L63P, A71V, G73S, and V82A in HIV-1MDR/JSL. HIV-1ERS104pre served as a source of wild-type HIV-1. EC50s were determined by using PHA-PBMs as target cells, and inhibition of p24 Gag protein production by each drug was used as an end point. Numbers in parentheses represent n-fold changes of EC50s for each isolate compared to EC50s for wild-type HIV-1ERS104pre.

HIV-1 protease = molecular target: T1, HIV-1 protease (Human immunodeficiency virus type 1 group M subtype B, UniProt P04585); experiment: HIV protease enzyme inhibition, fluorometric assay of Toth and Marshall; assay type: biochemical; details: Ki
T1 construct: A simple, continuous fluorometric assay for HIV protease
Method: (§1) The inhibitory potencies of acyclic and cyclic inhibitors were measured by the assay protocol of Toth and Marshall (Toth, M. V.; Marshall, G. R. A simple, continuous fluorometric assay for HIV protease. Int. J. Pep. Protien Res. 1990, 36, 544-55).

HIV-1 = experiment: antiviral assay (IC50); assay type: cell-based
Method: as §1

MT-2 cells = experiment: cytotoxicity CC50; assay type: cell-based, Human; details: MT-2 cells
[2] = Human immunodeficiency virus 1, Table 2, read-out: IC50
[3] = Human immunodeficiency virus 1, read-out: IC50

CC(C)CN(C[C@@H](O)[C@H](Cc1ccccc1)NC(=O)O[C@H]1CCOC1)S(=O)(=O)c1ccc(N)cc1 [APV, Amprenavir]
passage by which HIV-1 variants replicating in the presence of 1 μM drug emerged (HIV-1NL4-3): 20 passages

Cc1cccc(C)c1OCC(=O)N[C@@H](Cc1ccccc1)[C@@H](O)C[C@H](Cc1ccccc1)NC(=O)[C@H](C(C)C)N1CCCNC1=O [LPV, lopinavir]
EC50 ([1]; Human immunodeficiency virus 1, read-out: EC50 with multidrug-resistant clinical HIV-1 isolates (mostly)): > 1000 nM

COc1ccc2c(c1)OCCCC=CCCCCN(CC(O)C(Cc1ccccc1)NC(=O)OC1COC3OCCC13)S2(=O)=O (stereo not drawn) [Compound 14b]
Ki (HIV-1 protease): < 0.7 nM
Ki (HIV-1 protease; Table 2): < 1 nM
passage by which HIV-1 variants replicating in the presence of 1 μM drug emerged (HIV-1NL4-3): 37 passages
IC50 (HIV-1; [2]): < 10 nM
IC50 (HIV-1; [3]): < 49 nM

CCC[C@@]1(CCc2ccccc2)CC(O)=C([C@H](CC)c2cccc(NS(=O)(=O)c3ccc(C(F)(F)F)cn3)c2)C(=O)O1 [TPV, Tipranavir]
CC50 (MT-2 cells): 54100 ± 2100 nM
EC50 ([1]; Human immunodeficiency virus 1, read-out: greatest EC50 value against the clinical isolates): 380 nM

COc1ccc2c(c1)OCCC=CCCCCN(CC(O)C(Cc1ccccc1)NC(=O)OC1COC3OCCC13)S2(=O)=O (stereo not drawn) [Compound 14c]
IC50 (HIV-1; [2]): < 10 nM
IC50 (HIV-1; Human immunodeficiency virus 1, text b167): 2 nM
IC50 (HIV-1; [3]): 2 nM
